The target of assay [1] is T1, glucocorticoid receptor (Homo sapiens, UniProt P04150).
T1 sequence (P04150 1-777): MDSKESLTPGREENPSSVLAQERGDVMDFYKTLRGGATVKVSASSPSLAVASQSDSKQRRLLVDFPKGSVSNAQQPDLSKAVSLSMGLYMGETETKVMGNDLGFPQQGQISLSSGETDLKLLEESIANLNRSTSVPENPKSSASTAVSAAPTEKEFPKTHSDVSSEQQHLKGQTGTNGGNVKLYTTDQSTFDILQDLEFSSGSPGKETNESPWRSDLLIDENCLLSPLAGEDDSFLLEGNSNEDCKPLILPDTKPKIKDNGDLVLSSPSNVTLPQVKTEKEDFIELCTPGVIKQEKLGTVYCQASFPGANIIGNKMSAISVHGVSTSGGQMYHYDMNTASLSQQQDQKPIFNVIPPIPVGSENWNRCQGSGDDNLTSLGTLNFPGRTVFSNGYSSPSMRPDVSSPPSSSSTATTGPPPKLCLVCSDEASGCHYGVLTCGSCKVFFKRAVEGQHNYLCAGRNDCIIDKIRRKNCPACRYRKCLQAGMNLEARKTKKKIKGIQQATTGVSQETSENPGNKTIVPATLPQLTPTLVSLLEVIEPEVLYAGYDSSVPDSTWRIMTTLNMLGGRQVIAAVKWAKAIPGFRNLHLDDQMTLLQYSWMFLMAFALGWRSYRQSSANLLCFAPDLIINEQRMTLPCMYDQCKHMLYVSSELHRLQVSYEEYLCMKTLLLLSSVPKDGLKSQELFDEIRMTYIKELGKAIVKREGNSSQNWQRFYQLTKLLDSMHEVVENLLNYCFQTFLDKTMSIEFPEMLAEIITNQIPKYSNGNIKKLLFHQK
Put plainly: Assay for transrepression activity of the glucocorticoid agonists (NF-κB/ELAM-sPAP reporter, TNF stimulated). The note with it: A549 cells, NF-κB responsive ELAM promoter-sPAP reporter; compound 1 hour, then TNF 10 ng/ml for 16 hours; read-out: pEC50 transrepression (converted). In kind it is cell-based. How it is done: Assay for Transrepression Activity of the Glucocorticoid Agonists
The functional assay based on that described by K. P. Ray et al., Biochem J. (1997), 328, 707-715 provides a measure of transrepressive activity of a glucocorticoid agonist. A549 cells stably transfected with a reporter gene containing the NF-κB responsive elements from the ELAM gene promoter coupled to sPAP (secreted alkaline phosphatase) are treated with test compounds at appropriate doses for 1 hour at 37° C. The cells are then stimulated with tumour necrosis factor (TNF, 10 ng/ml) for 16 hours, at which time the amount of alkaline phosphatase produced is measured by a standard colourimetric assay. Dose response curves were constructed from which EC50 values were estimated.

The target of assay [2] is T1, glucocorticoid receptor. Put plainly: Assay for transactivation activity of the glucocorticoid agonists (MMTV-LTR renilla luciferase reporter). In kind it is cell-based. The note with it: A549, A549 cells, 6 hour at 37° C., read-out: maximal response relative to Dexamethasone (100%), transactivation. On the procedure:
Assay for Transactivation Activity of the Glucocorticoid Agonists
The functional assay based on that described by R. J. H. Austin et al., Eur Resp J. (2002), 20, 1386-1392 measures the ability of compounds to directly transactivate gene expression. A549 cells stably transfected with a reporter gene containing the glucocorticoid responsive region of the mouse mammary tumour virus long terminal repeat (MMTV-LTR) coupled to renilla luciferase were treated with test compounds at appropriate doses for 6 hour at 37° C. The amount of luciferase activity present within the cells is then determined by measuring the light emitted following incubation with a suitable substrate. Dose response curves were constructed from which EC50 values were estimated and from which maximal responses are calculated relative to Dexamethasone (100%).

From US7579335B2, “Androstane 17α-carbonate derivatives for use in the treatment of allergic and inflammatory conditions” (Glaxo Group Limited, priority 2005, dated 2009) come the findings set out here.

Each structure is given as a SMILES string.

Regarding `CCC(CC)OC(=O)O[C@]1(C(=O)OCC#N)[C@H](C)C[C@H]2[C@@H]3C[C@H](F)C4=CC(=O)C=C[C@]4(C)[C@@]3(F)[C@@H](O)C[C@@]21C` [Example 3, Cyanomethyl (6α,11β,16α,17α)-17-({[(1-ethylpropyl)oxy]carbonyl}oxy)-6,9-difluoro-11-hydroxy-16-methyl-3-oxoandrosta-1,4-diene-17-carboxylate], the EC50 at glucocorticoid receptor [1] is less than 0.316 nM. Take `CCCC(OC(=O)O[C@]1(C(=O)OCC#N)[C@H](C)C[C@H]2[C@@H]3C[C@H](F)C4=CC(=O)C=C[C@]4(C)[C@@]3(F)[C@@H](O)C[C@@]21C)C(C)C` (stereo partly drawn) [Example 24, Cyanomethyl (6α,11β,16α,17α)-6,9-difluoro-11-hydroxy-16-methyl-17-[({[1-(1-methylethyl)butyl]oxy}carbonyl)oxy]-3-oxoandrosta-1,4-diene-17-carboxylate]: the Emax on glucocorticoid receptor [2] was less than 40%. Turning to `CCC(OC(=O)O[C@]1(C(=O)OCC#N)[C@H](C)C[C@H]2[C@@H]3C[C@H](F)C4=CC(=O)C=C[C@]4(C)[C@@]3(F)[C@@H](O)C[C@@]21C)C(C)C` (stereo partly drawn) [Example 7, Cyanomethyl (6α,11β,16α,17α)-17-({[(1-ethyl-2-methylpropyl)oxy]carbonyl}oxy)-6,9-difluoro-11-hydroxy-16-methyl-3-oxoandrosta-1,4-diene-17-carboxylate], on glucocorticoid receptor [2], the Emax was less than 40%. Besides, the EC50 on glucocorticoid receptor [1] is less than 0.316 nM.

For the compound `CC[C@H]1CC[C@H](OC(=O)O[C@]2(C(=O)OCC#N)[C@H](C)C[C@H]3[C@@H]4C[C@H](F)C5=CC(=O)C=C[C@]5(C)[C@@]4(F)[C@@H](O)C[C@@]32C)CC1` (relative stereo) [Example 19, Cyanomethyl (6α,11β,16α,17α)-17-({[(trans-4-ethylcyclohexyl)oxy]carbonyl}oxy)-6,9-difluoro-11-hydroxy-16-methyl-3-oxoandrosta-1,4-diene-17-carboxylate], the Emax on glucocorticoid receptor [2] was less than 40%.

`CC(C)C1CCC(OC(=O)O[C@]2(C(=O)OCC#N)[C@H](C)C[C@H]3[C@@H]4C[C@H](F)C5=CC(=O)C=C[C@]5(C)[C@@]4(F)[C@@H](O)C[C@@]32C)CC1` (single isomer, unassigned) [Example 11B, Cyanomethyl (6α,11β,16α,17α)-6,9-difluoro-11-hydroxy-16-methyl-17-[({[4-(1-methylethyl)cyclohexyl]oxy}carbonyl)oxy]-3-oxoandrosta-1,4-diene-17-carboxylate]: the EC50 at glucocorticoid receptor [1] is less than 0.316 nM. As for `CC1CC2C3CC(F)C4=CC(=O)C=CC4(C)C3(F)C(O)CC2(C)C1(OC(=O)OC1CC2CCC1(C)C2(C)C)C(=O)OCC#N` (stereo not drawn) [Example 22, Cyanomethyl (6α,11β,16α,17α)-6,9-difluoro-11-hydroxy-16-methyl-3-oxo-17-[({[(1RS,2RS,4RS)-1,7,7-trimethylbicyclo[2.2.1]hept-2-yl]oxy}carbonyl)oxy]androsta-1,4-diene-17-carboxylate], the Emax at glucocorticoid receptor [2] was less than 40%. Turning to `C[C@@H]1C[C@H]2[C@@H]3C[C@H](F)C4=CC(=O)C=C[C@]4(C)[C@@]3(F)[C@@H](O)C[C@]2(C)[C@@]1(OC(=O)OC(C)(C)C)C(=O)OCC#N` [Example 1, Cyanomethyl (6α,11β,16α,17α)-17-({[(1,1-dimethylethyl)oxy]carbonyl}oxy)-6,9-difluoro-11-hydroxy-16-methyl-3-oxoandrosta-1,4-diene-17-carboxylate], the EC50 at glucocorticoid receptor [1] was less than 0.1 nM.

As to `CC(C)C(OC(=O)O[C@]1(C(=O)OCC#N)[C@H](C)C[C@H]2[C@@H]3C[C@H](F)C4=CC(=O)C=C[C@]4(C)[C@@]3(F)[C@@H](O)C[C@@]21C)C(C)C` [Example 4, Cyanomethyl (6α,11β,16α,17α)-6,9-difluoro-11-hydroxy-16-methyl-17-[({[2-methyl-1-(1-methylethyl)propyl]oxy}carbonyl)oxy]-3-oxoandrosta-1,4-diene-17-carboxylate], the EC50 on glucocorticoid receptor [1] is less than 0.316 nM.

Regarding `C[C@@H]1C[C@H]2[C@@H]3C[C@H](F)C4=CC(=O)C=C[C@]4(C)[C@@]3(F)[C@@H](O)C[C@]2(C)[C@@]1(OC(=O)OCC(C)(C)C)C(=O)OCC#N` [Example 6, Cyanomethyl (6α,11β,16α,17α)-17-({[(2,2-dimethylpropyl)oxy]carbonyl}oxy)-6,9-difluoro-11-hydroxy-16-methyl-3-oxoandrosta-1,4-diene-17-carboxylate], on glucocorticoid receptor [1], the EC50 is less than 0.316 nM.

Consider `C[C@@H]1C[C@H]2[C@@H]3C[C@H](F)C4=CC(=O)C=C[C@]4(C)[C@@]3(F)[C@@H](O)C[C@]2(C)[C@@]1(OC(=O)OC1CCCC1)C(=O)OCC#N` [Example 9, Cyanomethyl (6α,11β,16α,17α)-17-{[(cyclopentyloxy)carbonyl]oxy}-6,9-difluoro-11-hydroxy-16-methyl-3-oxoandrosta-1,4-diene-17-carboxylate], for which, at glucocorticoid receptor [2], the Emax was less than 40%. For the same compound, on glucocorticoid receptor [1], the EC50 is less than 0.316 nM. Regarding `CC(OC(=O)O[C@]1(C(=O)OCC#N)[C@H](C)C[C@H]2[C@@H]3C[C@H](F)C4=CC(=O)C=C[C@]4(C)[C@@]3(F)[C@@H](O)C[C@@]21C)C(C)(C)C` (stereo partly drawn) [Example 23, Cyanomethyl (6α,11β,16α,17α)-6,9-difluoro-11-hydroxy-16-methyl-3-oxo-17-({[(1,2,2-trimethylpropyl)oxy]carbonyl}oxy)androsta-1,4-diene-17-carboxylate], on glucocorticoid receptor [2], the Emax is less than 40%. Turning to `CC[C@H]1CC[C@@H](OC(=O)O[C@]2(C(=O)OCC#N)[C@H](C)C[C@H]3[C@@H]4C[C@H](F)C5=CC(=O)C=C[C@]5(C)[C@@]4(F)[C@@H](O)C[C@@]32C)CC1` (relative stereo) [Example 20, Cyanomethyl (6α,11β,16α,17α)-17-({[(cis-4-ethylcyclohexyl)oxy]carbonyl}oxy)-6,9-difluoro-11-hydroxy-16-methyl-3-oxoandrosta-1,4-diene-17-carboxylate], the Emax on glucocorticoid receptor [2] is less than 40%. For `CCC(C)(C)OC(=O)O[C@]1(C(=O)OCC#N)[C@H](C)C[C@H]2[C@@H]3C[C@H](F)C4=CC(=O)C=C[C@]4(C)[C@@]3(F)[C@@H](O)C[C@@]21C` [Example 2, Cyanomethyl (6α,11β,16α,17α)-17-({[(1,1-dimethylpropyl)oxy]carbonyl}oxy)-6,9-difluoro-11-hydroxy-16-methyl-3-oxoandrosta-1,4-diene-17-carboxylate], at glucocorticoid receptor [1], the EC50 is less than 0.1 nM. `CCC(CC)COC(=O)O[C@]1(C(=O)OCC#N)[C@H](C)C[C@H]2[C@@H]3C[C@H](F)C4=CC(=O)C=C[C@]4(C)[C@@]3(F)[C@@H](O)C[C@@]21C` [Example 5, Cyanomethyl (6α,11β,16α,17α)-17-({[(2-ethylbutyl)oxy]carbonyl}oxy)-6,9-difluoro-11-hydroxy-16-methyl-3-oxoandrosta-1,4-diene-17-carboxylate]: the Emax at glucocorticoid receptor [2] was less than 40%. Further, the EC50 on glucocorticoid receptor [1] is less than 0.316 nM. As to `CC(C)C(C)OC(=O)O[C@]1(C(=O)OCC#N)[C@H](C)C[C@H]2[C@@H]3C[C@H](F)C4=CC(=O)C=C[C@]4(C)[C@@]3(F)[C@@H](O)C[C@@]21C` (stereo partly drawn) [Example 8, Cyanomethyl (6α,11β,16α,17α)-17-({[(1,2-dimethylpropyl)oxy]carbonyl}oxy)-6,9-difluoro-11-hydroxy-16-methyl-3-oxoandrosta-1,4-diene-17-carboxylate], the Emax at glucocorticoid receptor [2] was less than 40%. Further, on glucocorticoid receptor [1], the EC50 is less than 0.316 nM. As to `CCCC(CCC)OC(=O)O[C@]1(C(=O)OCC#N)[C@H](C)C[C@H]2[C@@H]3C[C@H](F)C4=CC(=O)C=C[C@]4(C)[C@@]3(F)[C@@H](O)C[C@@]21C` [Example 21, Cyanomethyl (6α,11β16α,17α)-6,9-difluoro-11-hydroxy-16-methyl-3-oxo-17-({[(1-propylbutyl)oxy]carbonyl}oxy)androsta-1,4-diene-17-carboxylate], the Emax on glucocorticoid receptor [2] was less than 40%.
